These results are taken from patent publication US20080280303A1, “G-PROTEIN COUPLED RECEPTORS HIGH-[…]” (priority 2003, published 2008).

What all share (assay type): cell-based
In assay [1] the target is T1, GPR6 (Homo sapiens, UniProt P46095).
T1 construct: expressed in transfected cells
Put plainly: R-SAT constitutive proliferation, orphan receptor with ras/rapAA and ACII, with or without pertussis toxin. To be noted: PTX, 100 ng/ml. Here is the method: (§1) FIG. 7. Functional validation and characterization of orphan GPCRs using helper genes. A) The indicated receptors were expressed at two doses either alone, with ras/rapAA (20 ng/well) and ACII (2 ng/well), or Gαq (4 ng/well) and analyzed for constitutive stimulation of cellular proliferation as described above. Control represents the transfection of the same helper genes with vector substituting for receptor. The transfections were all balanced with vector to ensure the same total amount of DNA was transfected in each case. PI hydrolysis assays were carried out using tsa cells transfected with 20 ng/well of each receptor as described in Methods. B) The indicated receptors were expressed at two doses either alone, with ras/rapAA (20 ng/well) and ACII (2 ng/well), or Gαq (4 ng/well) and analyzed for constitutive stimulation of cellular proliferation as described above. Control represents the transfection of the same helper genes with vector substituting for receptor. The transfections were all balanced with vector to ensure the same total amount of DNA was transfected in each case. Cyclic AMP accumulation assays were carried out using HEK293 cells transfected with 20 ng/well of each receptor as described in Methods. C) The indicated receptors were expressed at with ras/rapAA (20 ng/well) and ACII (2 ng/well), incubated in the presence or absence of pertussis toxin (PTX, 100 ng/ml) and analyzed for constitutive stimulation of cellular proliferation as described above. Control represents the transfection of the same helper genes with vector substituting for receptor. D) The indicated receptors were tested for stimulation of cyclic AMP production as described in the experimental methods.
(§2) Functional assays. […] After five days in culture β-galactosidase levels were measured essentially as described (35). […] After 3 hr the plates were read at 420 nm on a plate-reader (Bio-Tek EL 310 or Molecular Devices). […]

In assay [2] the target is T2, GPR3 (Homo sapiens, UniProt P46089).
T2 construct: expressed in transfected cells
T2 sequence (P46089 whole entry, species assumed): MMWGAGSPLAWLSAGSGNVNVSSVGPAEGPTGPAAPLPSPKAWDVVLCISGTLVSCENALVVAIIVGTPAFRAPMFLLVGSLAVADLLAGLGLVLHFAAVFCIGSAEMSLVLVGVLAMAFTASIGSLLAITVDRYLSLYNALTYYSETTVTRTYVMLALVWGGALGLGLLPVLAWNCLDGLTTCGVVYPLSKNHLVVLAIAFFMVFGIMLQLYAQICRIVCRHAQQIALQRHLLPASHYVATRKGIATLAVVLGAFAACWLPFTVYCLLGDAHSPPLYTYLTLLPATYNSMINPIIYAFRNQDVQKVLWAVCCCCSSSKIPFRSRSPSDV
The assay is described as above. To be noted: PTX, 100 ng/ml. Here is the method: as §1, §2

For assay [3], the target named is T3, GPR12 (Homo sapiens, UniProt P47775).
T3 construct: expressed in transfected cells
T3 sequence (P47775 1-334): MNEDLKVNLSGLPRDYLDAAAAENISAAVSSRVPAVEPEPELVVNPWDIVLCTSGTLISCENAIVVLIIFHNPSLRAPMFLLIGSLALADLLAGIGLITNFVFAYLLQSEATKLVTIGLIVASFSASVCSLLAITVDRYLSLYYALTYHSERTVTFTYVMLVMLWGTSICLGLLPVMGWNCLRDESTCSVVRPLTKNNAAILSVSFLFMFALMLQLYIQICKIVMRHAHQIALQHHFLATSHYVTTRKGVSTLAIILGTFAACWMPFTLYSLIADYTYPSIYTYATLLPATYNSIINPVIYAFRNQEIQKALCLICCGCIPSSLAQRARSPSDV
The description is as above. To be noted: PTX, 100 ng/ml. The procedure:
as §1, §2

Assay [4] addresses T4, 5HT1E serotonin receptor (Homo sapiens, UniProt P28566).
T4 construct: expressed in transfected cells; host or cells: NIH 3T3
Put plainly: R-SAT cellular proliferation, 5HT1E co-expressed with ras/rapAA, with or without pertussis toxin. The note with it: 100 ug/ml pertussis toxin; agonist BRL54443; NIH 3T3 cells. Here is the method: (§3) FIG. 4. Pertussis toxin sensitivity of ras/rap dependent proliferative responses to Gs-coupled and Gi-coupled GPCRs. A) D1 (4 ng per well) and ras/rapAA (20 ng per well) were co-expressed and analyzed for proliferative responses in the presence or absence of 100 ug/ml pertussis toxin in the presence of the indicated concentrations of SKF81297. B) 5HT1E (20 ng per well) and ras/rapAA (20 ng per well) were co-expressed and analyzed for proliferative responses in the presence or absence of 100 ug/ml pertussis toxin in the presence of the indicated concentrations of BRL54443. C) D2 (4 ng/well), alpha2C (20 ng/well), and SST5 (4 ng/well) were each expressed with ras/rapAA (20 ng/well), incubated with the indicated concentrations of ligand and either with or without 100 ng/ml pertussis toxin (PTX) and analyzed for proliferative responses as described above. Control represents the receptors expressed alone.
as §2

The target of assay [5] is T5, D1 dopamine receptor (Homo sapiens, UniProt P21728).
T5 construct: expressed in transfected cells; host or cells: NIH 3T3
T5 sequence (P21728 whole entry): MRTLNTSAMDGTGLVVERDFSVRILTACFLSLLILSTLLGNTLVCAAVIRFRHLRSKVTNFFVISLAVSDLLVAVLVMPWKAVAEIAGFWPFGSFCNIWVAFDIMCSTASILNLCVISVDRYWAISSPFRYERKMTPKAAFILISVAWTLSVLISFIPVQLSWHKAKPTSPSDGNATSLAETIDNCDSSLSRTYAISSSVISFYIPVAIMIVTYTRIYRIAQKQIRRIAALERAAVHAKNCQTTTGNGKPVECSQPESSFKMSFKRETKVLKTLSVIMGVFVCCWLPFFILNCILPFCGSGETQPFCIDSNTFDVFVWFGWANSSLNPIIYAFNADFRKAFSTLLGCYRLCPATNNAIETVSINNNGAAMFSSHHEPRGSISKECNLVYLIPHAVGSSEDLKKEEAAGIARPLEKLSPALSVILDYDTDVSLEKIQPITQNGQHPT
The assay is described as follows: R-SAT cellular proliferation, D1 co-expressed with ras/rapAA, with or without pertussis toxin. The note with it: 100 ug/ml pertussis toxin; agonist SKF81297; NIH 3T3 cells. Here is the method:
as §3, §2

For assay [6], the target named is T6, EPAC (Homo sapiens, UniProt O95398).
T6 construct: expressed in transfected cells; host or cells: NIH 3T3
T6 sequence (O95398 1-923): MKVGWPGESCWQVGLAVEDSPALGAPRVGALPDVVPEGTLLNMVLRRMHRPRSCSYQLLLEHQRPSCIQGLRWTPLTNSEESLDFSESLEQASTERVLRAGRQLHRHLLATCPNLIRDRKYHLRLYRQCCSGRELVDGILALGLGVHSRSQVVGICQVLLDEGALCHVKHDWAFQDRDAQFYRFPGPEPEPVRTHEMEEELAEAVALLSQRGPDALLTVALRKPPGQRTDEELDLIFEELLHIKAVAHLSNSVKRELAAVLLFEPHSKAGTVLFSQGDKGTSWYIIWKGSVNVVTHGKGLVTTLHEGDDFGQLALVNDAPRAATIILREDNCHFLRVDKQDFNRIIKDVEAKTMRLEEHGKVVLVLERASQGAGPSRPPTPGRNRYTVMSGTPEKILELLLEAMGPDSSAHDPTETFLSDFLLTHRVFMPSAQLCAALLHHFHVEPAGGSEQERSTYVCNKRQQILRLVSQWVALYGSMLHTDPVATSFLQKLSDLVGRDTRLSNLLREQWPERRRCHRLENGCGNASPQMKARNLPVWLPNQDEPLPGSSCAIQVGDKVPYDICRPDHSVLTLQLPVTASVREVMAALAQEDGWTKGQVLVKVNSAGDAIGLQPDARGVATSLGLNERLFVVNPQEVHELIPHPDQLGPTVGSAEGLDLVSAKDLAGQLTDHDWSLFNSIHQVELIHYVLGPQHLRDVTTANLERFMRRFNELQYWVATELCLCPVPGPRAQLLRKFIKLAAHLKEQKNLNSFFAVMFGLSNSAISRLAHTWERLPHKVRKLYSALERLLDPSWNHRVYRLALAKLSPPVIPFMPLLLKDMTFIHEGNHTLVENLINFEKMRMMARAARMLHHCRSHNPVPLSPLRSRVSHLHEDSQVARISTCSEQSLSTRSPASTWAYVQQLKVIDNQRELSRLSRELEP
The assay is described as follows: R-SAT proliferation, EPAC co-expressed with ras/rapAA, with or without 8-Br cAMP. The note with it: 250 uM 8-Br cAMP; ras/rapAA 20 ng per well. The procedure:
FIG. 2. Characterization of regulation and signaling properties of ras/rap chimeras. A) Proliferative responses of ras, rap, and ras/rap measured in R-SAT. 4 ng/well each of wild-type or GTPase deficient (V 12) mutants of ras, rap1A, or ras/rap1A (24) were transfected and analyzed for proliferative responses as described in Methods. B & C) Rap-selective exchange factors activate cellular proliferation in a ras/rap chimera dependent manner. B) Synergy of EPAC with ras/rap chimeras. Two ng per well of the rap selective exchange factor EPAC was co-expressed with 20 ng per well of either rap1B, ras/rap1A, ras/rap1B, ras/rapAA, or control vector and analyzed for proliferative responses as described above. C) Synergy of C3G with ras/rap chimeras. Twenty ng per well of the rap selective exchange factor C3G (68) was co-expressed with 20 ng per well of either rap1B, ras/rap1A, ras/rap1B, ras/rapAA, or control vector and analyzed for proliferative responses as described above. D) The indicated doses (ng per well) of EPAC were co-expressed with 20 ng per well of ras/rapAA in the presence or absence of 250 uM 8-Br cAMP and analyzed for proliferative responses as described above. […] Either 10 ng per well of control vector, ras or ras/rapAA was co-expressed with EPAC (2 ng per well), C3G (10 ng per well), or Sos2 (10 ng per well) and analyzed for proliferative responses. […]

T4 sequence (P28566 whole entry): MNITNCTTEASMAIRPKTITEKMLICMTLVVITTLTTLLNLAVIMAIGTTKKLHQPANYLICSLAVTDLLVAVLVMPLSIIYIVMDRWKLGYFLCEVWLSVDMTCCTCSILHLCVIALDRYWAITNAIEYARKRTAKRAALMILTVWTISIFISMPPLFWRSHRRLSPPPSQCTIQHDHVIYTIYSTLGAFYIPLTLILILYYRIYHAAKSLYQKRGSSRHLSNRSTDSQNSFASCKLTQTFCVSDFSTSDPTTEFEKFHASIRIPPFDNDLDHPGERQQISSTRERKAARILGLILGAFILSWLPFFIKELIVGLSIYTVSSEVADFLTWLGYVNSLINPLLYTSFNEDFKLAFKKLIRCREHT
T1 sequence (P46095 whole entry, species assumed): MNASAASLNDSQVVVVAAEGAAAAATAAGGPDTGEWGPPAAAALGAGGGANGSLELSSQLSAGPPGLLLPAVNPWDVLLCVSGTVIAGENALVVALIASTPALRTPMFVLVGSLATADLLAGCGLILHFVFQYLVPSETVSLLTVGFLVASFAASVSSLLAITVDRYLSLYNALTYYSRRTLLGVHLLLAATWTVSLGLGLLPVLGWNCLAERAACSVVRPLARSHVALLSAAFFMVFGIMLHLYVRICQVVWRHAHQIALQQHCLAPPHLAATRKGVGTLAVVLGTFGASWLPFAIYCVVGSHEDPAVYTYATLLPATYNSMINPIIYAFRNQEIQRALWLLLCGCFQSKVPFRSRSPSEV

For pertussis toxin, in assay [1], the “effect on helper gene dependent constitutive response to GPR6” value was “significantly blunted”. The “effect on helper gene dependent constitutive response to GPR3” value in assay [2] is given as “hardly affected”. Moreover, the “effect on helper gene dependent constitutive response to GPR12” value in assay [3] is listed as “hardly affected”. Moreover, in assay [4], the “effect on ras/rap dependent responses to 5HT1E” value was “completely blocked”. In addition, the “effect on ras/rap dependent responses to D1” value in assay [5] was “did not block, and slightly increased”.

Take `Nc1ncnc2c1nc(Br)n2[C@@H]1O[C@@H]2COP(=O)(O)O[C@H]2[C@H]1O` [8-Br cAMP]: the “stimulation of EPAC to induce ras/rap-dependent responses” value in assay [6] is given as “stimulated”.
